In patent publication US20180296537A1, “METHODS AND COMPOSITIONS FOR DIAGNOSING, TREATING, AND MONITORING TREATMENT OF SHANK3 DEFICIENCY ASSOCIATED DISORDERS” (Novartis AG, priority 2015, published 2018):
“Also recorded” adds a separate entry of the source.

Key:
[1] = system: IGF-signaling impaired zebrafish model; conditions: cited from earlier work
CA1 neurons = assay: mEPSC recordings from shRNA-expressing CA1 neurons in hippocampal organotypic slice cultures; assay type: cell-based, mouse; conditions: Shank3 knock down neurons; overnight 4 μg/ml SC79
Description: Organotypice slices and cell cultures were transferred from growth medium to an interface chamber containing ACSF equilibrated with 95% O2/5% CO2 containing the following (in mM): 124 NaCl, 2.7 KCl, 2 CaCl2, 1.3 MgCl2, 26 NaHCO3, 0.4 NaH2PO4, 18 glucose, 4 ascorbate. Recordings were performed with ACSF in a recording chamber at a temperature of 35° C. at a perfusion rate of 1-2 ml/min. Neurons were visually identified with infrared video microscopy using an upright microscope equipped with a 40× objective (Olympus, Tokyo, Japan). Patch electrodes (3-5 MΩ) were pulled from borosilicate glass tubing. […]
Whole cell patch-clamp recordings were excluded if the access resistance exceeded 13 MΩ and changed more than 20% during the recordings. Data were recorded with a MultiClamp 700B (Molecular Devices) amplifier, filtered at 0.2 kHz, and digitised at 10 kHz. Data were acquired and analysed with Clampex 10.0, Clampfit 10.0 (Molecular Devices) and the Mini Analysis Program (Synaptosoft, Decatur, Ga.). […]
Given that SC79 and TG003 were able to recover spine numbers in Shank3 knock down neurons, the reinstatement of synaptic transmission was examined next. First, miniature excitatory postsynaptic currents (mEPSCs) were recorded from shRNA-expressing CA1 neurons in hippocampal organotypic slice cultures. […]

Shank3^ΔC/ΔC mice = assay: Three-chamber social interaction task; assay type: in vivo, mouse
Description: The three-chamber social interaction task was performed in a three-chambered arena with transparent walls and retractable doorways to allow mice access to flanking chambers (FIG. 9F). During testing, the arena was placed in a lighted, sound-proof box with no side-biasing features. A video camera was mounted above for recording. The test comprised three phases with different stimuli placed in the side chambers successively between phases. Each stimulus (social or inanimate) was placed within a small wire cage for immobilization while test mice were allowed to freely investigate the stimuli. In Phase 1, identical inanimate objects (inverted ceramic cups with blue stripe) were placed in both side chambers. An intruder mouse (same strain) was introduced in one side chamber as the social stimulus in Phase 2. In Phase 3, a second intruder mouse was placed in the other side chamber (novel social stimulus). Each phase consisted of a 7.5 minute exploration period with 5 minutes in the home cage between phases. The test animal was placed in the center chamber to start the task. Animals were habituated to the arena 24 hours before testing during which time they were allowed to freely explore the entire arena, with empty wire cages in side chambers, for 10 minutes. Social interaction time for a given phase was scored by cumulative social/investigative behaviors, in particular sniffing and actively seeking a stimulus. Proximity to a stimulus without investigation was not counted. Preference index was calculated by subtracting interaction time with one stimulus from that of the other stimulus in the same testing phase then dividing this by the sum of interaction times for both stimuli and converting this to a percentage. Positive scores indicate a preference for the first stimulus in the equation. […]

| Structure (SMILES) | habituation learning [1] | mEPSC frequency (CA1 neurons) | total distance travelled (Shank3^ΔC/ΔC mice; phase 1 or phase 2, TG003-treated mice) | preference for social interaction (S1 versus O1 interaction times) (Shank3^ΔC/ΔC mice; phase 2, 30 mg/kg TG003 i.p. 6-8 hours before testing, 30 mg/kg) | social investigation after delay (Shank3^ΔC/ΔC mice; phase 2, 72 hours after TG003 treatment) | time spent in S1 chamber (Shank3^ΔC/ΔC mice; phase 2, TG003-treated Shank3^ΔC/ΔC mice) |
| --- | --- | --- | --- | --- | --- | --- |
| CCOC(=O)C1=C(N)Oc2ccc(Cl)cc2C1C(C#N)C(=O)OCC (stereo not drawn) [SC79] | restore habituation learning | completely restored mEPSC frequency to control levels | – | – | – | – |
| CCN1/C(=C/C(C)=O)Sc2ccc(OC)cc21 [TG003, (Z)-1-(3-ethyl-5-methoxy-2,3-dihydrobenzothiazol-2-ylidene)propan-2-one] | – | – | no change from wild type in total distance travelled | recovered normal preference for social interaction; also recorded: corrected | maintained 72 hours after treatment | restores the time spent in the Si chamber to wild type levels |
